Experimental data taken from patent US20060171971A1, “Composition for wet wipes containing a non-irritating skin health benefit ingredient and the process for making” (The Procter & Gamble Company, priority 2005, published 2006).
Where “and” joins values, the source holds several entries; their conditions need not be identical. Equal entries are not always repeated.

Tests used:
[1] = Lability method (Zincon metallochromic dye colour change); format: physicochemical; conditions: 30 mg/10 ml water, pH 7-9, Zincon dye
Description: Particulate zinc materials differ with respect to how strongly the zinc ion (Zn^2+) is held by the counterion or counterions. […] To determine which particulate zinc materials provide labile Zn^2+, a test is developed using a metallochromic dye that changes color upon coordinating Zn 2+. The response is a binary visual assessment of whether or not the color changes, indicating zinc-binding.
The method is based on the commercial metallochromic dye Zincon sodium salt (2-carboxy-2′-hydroxy-5′-sulfoformazyl-benzene sodium salt, such as Cat. No. 201332 available from Sigma-Aldrich, St. Louis, Mo.). Zincon changes from an orange to blue color upon binding zinc ion and provides the basis for detecting available Zn 2+. The specific procedure involves making a stock solution of Zincon in ethanol (50 mg/10 ml ethanol). The particulate zinc material is then added to water (30 mg/10 ml water) and agitated vigorously (pH should be 7-9). Three to four drops of Zincon solution are then added to the particulate zinc material in water, agitated, and a visual assessment of color change made.

[2] = system: EPIDERM™ cultures; assay: Epiderm culture viability, MTT assay; format: cell-based, human; conditions: mixed with IIBM, 16 hours, normalized to water control
Description: (§1) Epiderm Culture Assay With Quantification of IL-1α and Viability
(§2) In order to evaluate the efficacy of the materials and embodiments of the present invention, a bio-engineered human skin construct is used to model the response of normal human epidermis. The EPIDERM™ skin model (as available from MatTek Corporation, Ashland, Mass.) is a three-dimensional, cornified, air-interfaced culture system. Each EPIDERM™ culture has multiple layers of progressively differentiated keratinocytes, closely resembling human epidermis. EPIDERM™ EPI-200-hydrocortisone-free (hereinafter EPI-200-HCF) cultures are used because these cultures show a strong inflammatory response to irritants. Cultures are incubated in medium that is also hydrocortisone-free (EPI-100-MM-HCF). All work with the cultures is carried out under sterile conditions in a biological safety cabinet.
(§3) Experiments using the EPI-200-HCF cultures are conducted in six-well plates supplied with the cultures. Each well of the plate is filled with 900 microliters of pre-warmed EPI-100-MM-HCF medium, and then one EPI-200-HCF culture insert (shipped in 24-well format) is carefully transferred into the center of each well such that no air bubbles are trapped underneath the insert. After all of the culture inserts are transferred, the six-well plates are incubated in a 37° C., 5% CO2 tissue culture incubator for at least two hours.
(§4) During the time the cultures are acclimating, the controls and test samples to be applied to the cultures are prepared. Sufficient material is prepared such that quadruplicate cultures can be dosed with about 100 microliters of the control or test sample. Throughout this section, the word “water” refers to autoclaved, Milli-Q water.
(§5) For each experiment, three controls are run. The first control is water. The second control is a freshly-made solution of 0.125% Triton-X-100 in water, prepared by diluting the 1% Triton-X-100 stock solution shipped with the EPIDERM™ cultures. The third control is infant irritating bowel movement (hereinafter IIBM). IIBM is prepared as described in the PREPARATION OF INFANT […] method of the TEST METHODS section. At the time of use, the required number of tubes of IIBM are thawed at room temperature and 250 microliter aliquots are dispensed into 1.5 ml polypropylene microfuge tubes using a positive displacement pipettor. To each microfuge tube is then added 10 microliters of a 1 N NaOH solution to raise the pH and ensure activity of the fecal enzymes. For the IIBM control, an additional 250 microliters of water is added, and the tube is mixed thoroughly using a vortex mixer.
(§6) For preparation of the test samples, a suspension in water of the material to be tested is first prepared. As an example, a 1% suspension of zinc oxide in water is prepared by weighing out 0.1 grams of zinc oxide into a 15 ml polypropylene tube (such as Cat No. 21008-935 from VWR) and adding sufficient water to bring the volume to 10 milliliters. Each suspension is vortexed thoroughly and allowed to sit for at least one hour at room temperature prior to use. To ascertain the irritancy of the test sample by itself, the neat suspension is applied to the EPIDERM™ culture. To ascertain the ability of the test sample to reduce the irritancy of IIBM, 250 microliters of the suspension is added to a microfuge tube already containing a 250 microliter aliquot of IIBM plus 10 microliters of 1 N NaOH (as prepared above). […]

[3] = system: IL-1α; assay: Epiderm culture assay with quantification of IL-1α (test sample mixed with IIBM); format: cell-based, human; conditions: 16 hours
Description: as §1, §2, §3, §4, §5, §6

zinc stearate
available (labile) Zn2+, binary visual assessment of colour change [1]: having available Zn^2+

O=S(=O)([O-])[O-].[Zn+2] [Zinc Sulfate, zinc sulfate]
Normalized EPIDERM Viability ([2]; zinc sulfate 87 mM (2.5% w/w)): 44% and 28%
Normalized EPIDERM Viability ([2]; zinc sulfate 174 mM (5.0% w/w)): 14% and 11%
Mean % IL-1α Reduction ([3]; zinc sulfate 87 mM (2.5% w/w)): 99% and 98%
Mean % IL-1α Reduction ([3]; zinc sulfate 174 mM (5.0% w/w)): 98% and 99%

OCC(O)CO.[Zn] [zinc monoglycerolate]
available (labile) Zn2+, binary visual assessment of colour change [1]: having available Zn^2+

O=C([O-])[O-].[Zn+2] [zinc carbonate]
available (labile) Zn2+, binary visual assessment of colour change [1]: having available Zn^2+

[O]=[Zn] [Zinc Oxide, zinc oxide]
Normalized EPIDERM Viability ([2]; zinc oxide 31 mM (0.25% w/w)): 95%
Normalized EPIDERM Viability ([2]; zinc oxide 63 mM (0.5% w/w)): 95%
Normalized EPIDERM Viability ([2]; zinc oxide 125 mM (1.0% w/w)): 96%
available (labile) Zn2+, binary visual assessment of colour change [1]: having available Zn^2+
Mean % IL-1α Reduction ([3]; zinc oxide 31 mM (0.25% w/w)): 68%
Mean % IL-1α Reduction ([3]; zinc oxide 63 mM (0.5% w/w)): 76%
Mean % IL-1α Reduction ([3]; zinc oxide 125 mM (1.0% w/w)): 90%
